# According to ChEMBL document CHEMBL1201862, “PubChem BioAssay data set” (2004):
#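 Step 1: Grow cells in 96-well plates. Step 2: Expose to compound for 48 hours at 5 concentrations. Step 3: Interpolate endpoints linearly; if unreached, use highest concentration. Here, GI50 denotes the concentration required for 50% inhibition of growth.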 Active and inactive are the calls of the source. Rule as the data show it: active = GI50 up to about 1.1 µM and inactive = higher.
# Key:
# Test in all cases: DTP human tumour cell line panel, 48 h
# NCI-H460 = test system: NCI-H460
# HCC 2998 = test system: HCC 2998
# COLO 205 = test system: COLO 205
# HT-29 = test system: HT-29
# SK-OV-3 = test system: SK-OV-3
# M14 = test system: M14
# T47D = test system: T47D
# A549 = test system: A549
# SK-MEL-28 = test system: SK-MEL-28
# HOP-62 = test system: HOP-62
# UO-31 = test system: UO-31
# LOX IMVI = test system: LOX IMVI
# DU-145 = test system: DU-145
# MDA-MB-435 = test system: MDA-MB-435
# OVCAR-5 = test system: OVCAR-5
# MOLT-4 = test system: MOLT-4
# 786-0 = test system: 786-0
# RPMI-8226 = test system: RPMI-8226
# UACC-62 = test system: UACC-62
# CCRF-CEM = test system: CCRF-CEM
# MCF7 = test system: MCF7
# IGROV-1 = test system: IGROV-1
# SW-620 = test system: SW-620
# SK-MEL-2 = test system: SK-MEL-2
# UACC-257 = test system: UACC-257
# Hs-578T = test system: Hs-578T
# HOP-92 = test system: HOP-92
# SNB-19 = test system: SNB-19
# KM-20L2 = test system: KM-20L2
# MDA-MB-231 = test system: MDA-MB-231
# TK-10 = test system: TK-10
# BT-549 = test system: BT-549
# HL-60 = test system: HL-60
# RXF 393 = test system: RXF 393
# KM12 = test system: KM12
# SN12C = test system: SN12C
# PC-3 = test system: PC-3
# NCI/ADR-RES = test system: NCI/ADR-RES
# SK-MEL-5 = test system: SK-MEL-5
# MDA-N = test system: MDA-N
# SF-539 = test system: SF-539
# DLD-1 = test system: DLD-1
# OVCAR-8 = test system: OVCAR-8
# SNB-78 = test system: SNB-78
# DMS-273 = test system: DMS-273
# OVCAR-3 = test system: OVCAR-3
# NCI-H23 = test system: NCI-H23
# NCI-H522 = test system: NCI-H522
# ACHN = test system: ACHN
# HCT-15 = test system: HCT-15
# A498 = test system: A498
# EKVX = test system: EKVX
# SR = test system: SR
# K562 = test system: K562
# NCI-H226 = test system: NCI-H226
# OVCAR-4 = test system: OVCAR-4
# SNB-75 = test system: SNB-75
# HCT-116 = test system: HCT-116
# CAKI-1 = test system: CAKI-1
# U-251 = test system: U-251
# SF-295 = test system: SF-295
# SF-268 = test system: SF-268
# Malme-3M = test system: Malme-3M
smiles,measurement,setting,value
O=C1c2cccc(NCCCNCCO)c2C(=O)c2cccc(NCCCNCCO)c21,GI50,NCI-H460,1.68 µM (inactive)
same,GI50,HCC 2998,0.9 µM (active)
same,GI50,COLO 205,1.8 µM (inactive)
same,GI50,HT-29,2.02 µM (inactive)
same,GI50,SK-OV-3,2.25 µM (inactive)
same,GI50,M14,3.61 µM (inactive)
same,GI50,T47D,3.27 µM (inactive)
same,GI50,A549,2 µM (inactive)
same,GI50,SK-MEL-28,1.83 µM (inactive)
same,GI50,HOP-62,1.96 µM (inactive)
same,GI50,UO-31,9.59 µM (inactive)
same,GI50,LOX IMVI,2.29 µM (inactive)
same,GI50,DU-145,2.62 µM (inactive)
same,GI50,MDA-MB-435,1.67 µM (inactive)
same,GI50,OVCAR-5,2.31 µM (inactive)
same,GI50,MOLT-4,0.769 µM (active)
same,GI50,786-0,2.08 µM (inactive)
same,GI50,RPMI-8226,2.44 µM (inactive)
same,GI50,UACC-62,2.01 µM (inactive)
same,GI50,CCRF-CEM,0.701 µM (active)
same,GI50,MCF7,0.325 µM (active)
same,GI50,IGROV-1,2.81 µM (inactive)
same,GI50,SW-620,2.4 µM (inactive)
same,GI50,SK-MEL-2,1.85 µM (inactive)
same,GI50,UACC-257,6.08 µM (inactive)
same,GI50,Hs-578T,0.627 µM (active)
same,GI50,HOP-92,1.55 µM (inactive)
same,GI50,SNB-19,1.15 µM (inactive)
same,GI50,KM-20L2,2.75 µM (inactive)
same,GI50,MDA-MB-231,1.42 µM (inactive)
same,GI50,TK-10,3.85 µM (inactive)
same,GI50,BT-549,2.05 µM (inactive)
same,GI50,HL-60,1.27 µM (inactive)
same,GI50,RXF 393,2.13 µM (inactive)
same,GI50,KM12,2.12 µM (inactive)
same,GI50,SN12C,0.935 µM (active)
same,GI50,PC-3,2.41 µM (inactive)
same,GI50,NCI/ADR-RES,13.7 µM (inactive)
same,GI50,SK-MEL-5,2 µM (inactive)
same,GI50,MDA-N,1.71 µM (inactive)
same,GI50,SF-539,1.49 µM (inactive)
same,GI50,DLD-1,2.34 µM (inactive)
same,GI50,OVCAR-8,2.16 µM (inactive)
same,GI50,SNB-78,3.46 µM (inactive)
same,GI50,DMS-273,2.31 µM (inactive)
same,GI50,OVCAR-3,3.05 µM (inactive)
same,GI50,NCI-H23,1.81 µM (inactive)
same,GI50,NCI-H522,0.373 µM (active)
same,GI50,ACHN,2.08 µM (inactive)
same,GI50,HCT-15,8.99 µM
same,GI50,A498,2.8 µM (inactive)
same,GI50,EKVX,2.94 µM (inactive)
CC(=O)OC(C)(C)/C=C/C(=O)[C@](C)(O)[C@H]1[C@H](O)C[C@@]2(C)[C@@H]3CC=C4[C@@H](C[C@H](O)C(=O)C4(C)C)[C@]3(C)C(=O)C[C@]12C,GI50,NCI-H460,< 0.01 µM (active)
same,GI50,HCC 2998,< 0.01 µM (active)
same,GI50,COLO 205,< 0.01 µM (active)
same,GI50,HT-29,< 0.01 µM (active)
same,GI50,SR,< 0.01 µM (active)
same,GI50,K562,< 0.01 µM (active)
same,GI50,SK-OV-3,< 0.01 µM (active)
same,GI50,M14,< 0.01 µM (active)
same,GI50,T47D,0.0362 µM (active)
same,GI50,A549,< 0.01 µM (active)
same,GI50,SK-MEL-28,< 0.01 µM (active)
same,GI50,HOP-62,< 0.0111 µM (active)
same,GI50,NCI-H226,< 0.01 µM (active)
same,GI50,UO-31,< 0.01 µM (active)
same,GI50,LOX IMVI,< 0.01 µM (active)
same,GI50,OVCAR-4,< 0.01 µM (active)
same,GI50,DU-145,< 0.01 µM (active)
same,GI50,SNB-75,< 0.01 µM (active)
same,GI50,MDA-MB-435,< 0.01 µM (active)
same,GI50,OVCAR-5,< 0.0246 µM (active)
same,GI50,MOLT-4,0.167 µM (active)
same,GI50,786-0,< 0.01 µM (active)
same,GI50,RPMI-8226,< 0.01 µM (active)
same,GI50,UACC-62,< 0.01 µM (active)
same,GI50,CCRF-CEM,< 0.01 µM (active)
same,GI50,MCF7,< 0.01 µM (active)
same,GI50,HCT-116,< 0.01 µM (active)
same,GI50,IGROV-1,< 0.01 µM (active)
same,GI50,SW-620,< 0.01 µM (active)
same,GI50,SK-MEL-2,< 0.01 µM (active)
same,GI50,UACC-257,< 0.01 µM (active)
same,GI50,Hs-578T,< 0.01 µM (active)
same,GI50,HOP-92,0.0175 µM (active)
same,GI50,SNB-19,< 0.0174 µM (active)
same,GI50,MDA-MB-231,< 0.01 µM (active)
same,GI50,TK-10,< 0.01 µM (active)
same,GI50,CAKI-1,< 0.01 µM (active)
same,GI50,U-251,< 0.01 µM (active)
same,GI50,SF-295,< 0.01 µM (active)
same,GI50,BT-549,< 0.01 µM (active)
same,GI50,HL-60,< 0.01 µM (active)
same,GI50,RXF 393,< 0.01 µM (active)
same,GI50,KM12,1.4 µM (inactive)
same,GI50,SN12C,< 0.0143 µM (active)
same,GI50,PC-3,< 0.01 µM (active)
same,GI50,SF-268,< 0.01 µM (active)
same,GI50,Malme-3M,< 0.01 µM (active)
same,GI50,NCI/ADR-RES,0.0112 µM (active)
same,GI50,SK-MEL-5,< 0.01 µM (active)
same,GI50,MDA-N,< 0.01 µM (active)
same,GI50,SF-539,< 0.01 µM (active)
same,GI50,OVCAR-8,0.064 µM (active)
same,GI50,OVCAR-3,< 0.01 µM (active)
same,GI50,NCI-H23,0.0873 µM (active)
same,GI50,NCI-H522,< 0.01 µM (active)
same,GI50,ACHN,< 0.01 µM (active)
same,GI50,HCT-15,< 0.01 µM
same,GI50,A498,< 0.01 µM (active)
same,GI50,EKVX,0.0102 µM (active)
